Columns and labels:
Assay type in all cases: cell-based, human
MP1 tumor spheres = test: Spheroid-based matrix invasion assay (invadopodia); settings: spheres embedded in geltrex
Experimental: Invadopodia measurements. After embedding the spheres in a 3D matrix, their extent of invasion was monitored over […]. Using an inverted microscope set at a magnification of 20×, images of the spheres were obtained at 0 hours, 24 hours, and 48 hours after plating. Analysis for invasion was done using ‘imageJ’ by NIH. The area of invasion was measured by sketching an outline around the spheres using the freehand draw tool. The ‘measure’ tool in ‘Analyze’ on the top menu calculated the area for the selected spheroid. The areas of just the spheres (inner area) and the area of the spheres along with its invadopodia (outer area) were measured. The percent difference between the outer area and the inner area was graphed to understand the extent of invasion in each cell type at different time points. The obtained areas for all the spheres were graphed. Spheres of similar areas were selected, whereas the outliers were eliminated so as to compare the spheres of similar volumes.

H1299 cells [1] = test: Seahorse oxygen consumption rate (mitochondrial stress test)
Experimental: Seahorse extracellular flux analyzer experiments. Cells derived from spheres or monolayer cultures were dissociated and plated overnight at 12,000 cells/well in DMEM with 10% FBS, 5 mM glucose, 1 mM pyruvate, 2 mM glutamine.
For the mitochondrial stress test, the media was replaced with DMEM without FBS or bicarbonate, containing 5 mM glucose, 1 mM pyruvate, 2 mM glutamine and placed in a CO2 free incubator at 37° C. for 1 hour, and then transferred to the Xf96 extracellular flux analyzer (Agilent; Santa Clara, CA). The program consisted of 3 measurements of OCR/ECAR before the injection of each drug: oligomycin (0.5 μM final concentration), FCCP (2 μM) and rotenone/antimycin (0.5 μM of each). […] There were 3 measurements of OCR/ECAR before each injection: glucose (10 mM final concentration), oligomycin (0.5 […] (50 mM). For the analysis of glutamine oxidation, the protocol was the same as the glucose stress test, but with glutamine being the only compound injected (final concentration 4 mM) and OCR/ECAR measured for 60 minutes. When spheres were analyzed, they were dissociated with StemPro® Accutase® (Thermo Scientific; Waltham, MA) and plated under the same conditions as above as for the monolayers the day before the assay (H1299 spheres), or in stem cell media (See Stem Cell Media) with the wells coated in 15 μL of 2% geltrex diluted in DMEM:F12 (Thermo Scientific). […]

H1299 cells [2] = test: Proliferation / viability in monolayer (2D) cultures
Experimental: Cellular proliferation and cytotoxicity assays. The proliferative capacity of cells was assessed by plating cells in triplicate at a concentration of 2,000 to 10,000 cells/well in 96 well plates in triplicate, with or without drug treatment for 48 hours. The cells were then washed with 1×PBS and fixed with cold 100% methanol at−20° C. for 20 minutes. Methanol was washed off and the cells were stained with 0.5% crystal violet dissolved in 25% methanol and water at 4° C. for 20 minutes. The staining was washed off using deionized (DI) water and the plate was dried overnight. On the second day, 100 mM sodium citrate in 50% ethanol and 50% water was added to the wells and absorbance at 550 nm was measured and corrected with readings at 405 nm. In other experiments, cell viability was assessed by trypan blue exclusion and visual count of the live cells was performed.

H1299 spheres = test: Cell cycle analysis of spheres; settings: after three days of treatment
Experimental: Flow cytometry. Tumor cells were trypsinized and washed in 1×PBS. The cells were then stained with the antibodies of choice: CD166-PE (Biolegend), CD133-647 (Biolegend), or CD44 (Biolegend), in 1% BAS-PBS. The cell cycles of monolayers or spheres of the cells were analyzed by fixing the cells in cold 75% ethanol. The annexin V (Biolegend) and propidium iodide (Biolegend) experiments were carried out.

`O=C(O)c1ccccc1NS(=O)(=O)c1ccc(Cl)c([N+](=O)[O-])c1` [CTPI-2] was tested, and the matrix invasion (MP1 tumor spheres) was “completely reverted this phenotype”, the “respiratory activity of cells expressing the SLC25A1 shRNA” value (H1299 cells [1]; SLC25A1 shRNA cells) was “failed to affect the respiratory activity” and the “respiratory capacity (OCR)” value (H1299 cells [1]; treated for three hours, spheres and monolayers) was “inhibited respiratory capacity in a dose-dependent fashion”. For the same compound, the “proliferation of cells expressing the SLC25A1-shRNA” value (H1299 cells [2]; SLC25A1-shRNA lentivirus, live cells counted after one week) was “failed to inhibit proliferation”, the “anti-proliferative activity, ranges of concentrations” value (H1299 cells [2]; monolayer or methylcellulose single cells (FIG. 3J)) was “anti-proliferative activity at comparable ranges of concentrations” and the “cell cycle effect in spheres” value (H1299 spheres) was “modestly cytostatic”.
